Here are results for 2 molecules from ChEMBL document CHEMBL1139415, “Highly functionalized 7-azaindoles as selective PPAR gamma modulators” (Bioorg Med Chem Lett, 2008).

The nature of data set [1]: Half life in Sprague-Dawley rat at 0.5 mg, iv and 2.0 mg, po. Type of data set: ADME, organism-based. Conditions: in vivo.
In the next data set the test system is Mus musculus. In words: Antiglycemic activity in db/db mouse assessed as glucose correction at 10 mg/kg, po administered daily for 11 days. Type of data set: functional.
Data set [2] addresses T1, Peroxisome proliferator-activated receptor gamma (Homo sapiens, UniProt P37231).
T1 sequence (P37231 whole entry): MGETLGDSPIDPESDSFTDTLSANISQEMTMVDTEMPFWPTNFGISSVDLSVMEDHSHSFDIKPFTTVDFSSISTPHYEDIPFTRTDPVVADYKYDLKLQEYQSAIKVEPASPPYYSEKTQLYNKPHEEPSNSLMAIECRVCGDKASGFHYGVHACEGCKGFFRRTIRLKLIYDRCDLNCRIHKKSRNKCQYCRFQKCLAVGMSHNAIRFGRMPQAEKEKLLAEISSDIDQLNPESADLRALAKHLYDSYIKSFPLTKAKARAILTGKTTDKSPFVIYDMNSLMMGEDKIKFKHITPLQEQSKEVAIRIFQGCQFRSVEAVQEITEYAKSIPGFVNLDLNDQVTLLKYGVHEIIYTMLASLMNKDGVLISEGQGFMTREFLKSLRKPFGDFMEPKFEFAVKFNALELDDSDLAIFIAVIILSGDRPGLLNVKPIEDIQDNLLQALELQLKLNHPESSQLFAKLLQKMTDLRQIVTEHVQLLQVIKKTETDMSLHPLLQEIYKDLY
As to the kind of experiment: Displacement of [3H]2AD-5075 from GST-tagged human PPARgamma receptor expressed in Escherichia coli BL21.

For data set [3], the target named is T2, Peroxisome proliferator-activated receptor delta (Homo sapiens, UniProt Q03181).
T2 sequence (Q03181 whole entry): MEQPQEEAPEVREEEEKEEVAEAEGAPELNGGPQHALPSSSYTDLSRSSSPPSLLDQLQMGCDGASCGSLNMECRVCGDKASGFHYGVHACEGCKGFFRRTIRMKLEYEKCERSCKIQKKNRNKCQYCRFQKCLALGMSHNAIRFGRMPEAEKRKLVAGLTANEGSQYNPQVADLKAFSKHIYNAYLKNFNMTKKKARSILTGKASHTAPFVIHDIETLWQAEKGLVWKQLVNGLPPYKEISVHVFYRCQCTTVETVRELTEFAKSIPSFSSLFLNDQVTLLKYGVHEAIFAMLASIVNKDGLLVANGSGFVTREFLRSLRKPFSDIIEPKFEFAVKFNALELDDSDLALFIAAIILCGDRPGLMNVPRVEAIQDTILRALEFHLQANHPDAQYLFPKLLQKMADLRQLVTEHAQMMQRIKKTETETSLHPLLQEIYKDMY
As to the kind of experiment: Binding affinity to PPARdelta.

A further data set deals with Cytochrome P450 3A4 (Homo sapiens, UniProt P08684). As to the kind of experiment: Inhibition of CYP3A4. Type of data set: ADME.
Data set [4] is described as follows: Clearance in Sprague-Dawley rat at 0.5 mg, iv and 2.0 mg, po. Type of data set: ADME, organism-based. Conditions: in vivo.
Data set [5] has as its target T3, Peroxisome proliferator-activated receptor alpha (Homo sapiens, UniProt Q07869).
T3 sequence (Q07869 whole entry): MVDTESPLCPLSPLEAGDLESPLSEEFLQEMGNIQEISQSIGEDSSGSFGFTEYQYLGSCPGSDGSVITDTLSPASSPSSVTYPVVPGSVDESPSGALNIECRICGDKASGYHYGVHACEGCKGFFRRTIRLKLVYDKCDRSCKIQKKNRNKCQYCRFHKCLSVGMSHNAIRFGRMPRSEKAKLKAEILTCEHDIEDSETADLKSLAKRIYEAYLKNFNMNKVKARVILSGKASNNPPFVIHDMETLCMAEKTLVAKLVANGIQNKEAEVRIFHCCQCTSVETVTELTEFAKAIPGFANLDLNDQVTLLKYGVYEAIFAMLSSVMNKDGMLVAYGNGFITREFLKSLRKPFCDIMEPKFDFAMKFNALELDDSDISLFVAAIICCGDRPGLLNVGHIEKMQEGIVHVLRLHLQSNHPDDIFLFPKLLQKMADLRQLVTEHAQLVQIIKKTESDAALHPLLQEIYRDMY
As to the kind of experiment: Binding affinity to human PPARalpha.

The target in data set [6] is T1, Peroxisome proliferator-activated receptor gamma. In words: Agonist activity at human PPARgamma receptor expressed in african green monkey COS cells after 48 hrs by GAL4 transactivation assay. It is filed as functional, cell-based.
Data set [7] is described as follows: Bioavailability in Sprague-Dawley rat at 0.5 mg, iv and 2.0 mg, po. Type of data set: ADME, organism-based. Conditions: in vivo.
The target of a further data set is Thromboxane A2 receptor (Homo sapiens, UniProt P21731). In words: Displacement of radioligand from TXA2 receptor.
In data set [8] the target is Beta-1 adrenergic receptor (Homo sapiens, UniProt P08588). As to the kind of experiment: Displacement of radioligand from adrenergic beta-1 receptor.
Data set [9] concerns the target Sodium-dependent serotonin transporter (Homo sapiens, UniProt P31645). In words: Displacement of radioligand from SERT.
The target in the next data set is Mu-type opioid receptor (Homo sapiens, UniProt P35372). In words: Displacement of radioligand from mu opioid receptor.
For data set [10], the target named is Muscarinic acetylcholine receptor M4 (Homo sapiens, UniProt P08173). In words: Displacement of radioligand from muscarinic M4 receptor.
In another data set the target is Substance-K receptor (Homo sapiens, UniProt P21452). In words: Displacement of radioligand from tachykinin NK2 receptor.
In data set [11] the target is Beta-3 adrenergic receptor (Homo sapiens, UniProt P13945). In words: Displacement of radioligand from adrenergic beta3 receptor.
The target of data set [12] is 5-hydroxytryptamine receptor 2B (Homo sapiens, UniProt P41595). In words: Displacement of radioligand from 5HT2B receptor.
The target of a further data set is Prostacyclin receptor (Homo sapiens, UniProt P43119). As to the kind of experiment: Inhibition of prostanoid IP receptor.
Another data set concerns the target D(2) dopamine receptor (Homo sapiens, UniProt P14416). As to the kind of experiment: Displacement of radioligand from dopamine D2S receptor.
Data set [13] is described as follows: Inhibition of PDE3.
Another data set concerns the target D(1A) dopamine receptor (Homo sapiens, UniProt P21728). As to the kind of experiment: Displacement of radioligand from dopamine D1 receptor.
A short description of data set [14]: Inhibition of PDE2.
The target of data set [15] is Sodium-dependent dopamine transporter (Homo sapiens, UniProt Q01959). As to the kind of experiment: Displacement of radioligand from DAT.
Data set [16] addresses Prostaglandin F2-alpha receptor (Homo sapiens, UniProt P43088). As to the kind of experiment: Inhibition of prostanoid FP receptor.
In data set [17] the target is Alpha-2B adrenergic receptor (Homo sapiens, UniProt P18089). In words: Displacement of radioligand from adrenergic alpha2B receptor.
Data set [18] has as its target Alpha-2A adrenergic receptor (Homo sapiens, UniProt P08913). As to the kind of experiment: Displacement of radioligand from adrenergic alpha2A receptor.
In data set [19] the target is Sodium-dependent noradrenaline transporter (Homo sapiens, UniProt P23975). In words: Displacement of radioligand from NET.
For data set [20], the target named is Prostaglandin E2 receptor EP4 subtype (Homo sapiens, UniProt P35408). In words: Inhibition of prostanoid EP4 receptor.
For a further data set, the target named is D(3) dopamine receptor (Homo sapiens, UniProt P35462). As to the kind of experiment: Displacement of radioligand from dopamine D3 receptor.
In data set [21] the target is Kappa-type opioid receptor (Homo sapiens, UniProt P41145). In words: Displacement of radioligand from kappa opioid receptor.
Data set [22] has as its target Polyunsaturated fatty acid 5-lipoxygenase (Homo sapiens, UniProt P09917). In words: Inhibition of 5-Lipoxygenase.
The target in data set [23] is Prostaglandin E2 receptor EP3 subtype (Homo sapiens, UniProt P43115). As to the kind of experiment: Inhibition of prostanoid EP3 receptor.
Data set [24] has as its target Muscarinic acetylcholine receptor M3 (Homo sapiens, UniProt P20309). As to the kind of experiment: Displacement of radioligand from muscarinic M3 receptor.
Data set [25] addresses Prostaglandin D2 receptor (Homo sapiens, UniProt Q13258). In words: Inhibition of prostanoid DP receptor.
Data set [26] addresses Delta-type opioid receptor (Homo sapiens, UniProt P41143). In words: Displacement of radioligand from delta opioid receptor.

The structures appear in SMILES notation. Bounds are passed on as bounds.

Sequence of 5-hydroxytryptamine receptor 2B (P41595 whole entry): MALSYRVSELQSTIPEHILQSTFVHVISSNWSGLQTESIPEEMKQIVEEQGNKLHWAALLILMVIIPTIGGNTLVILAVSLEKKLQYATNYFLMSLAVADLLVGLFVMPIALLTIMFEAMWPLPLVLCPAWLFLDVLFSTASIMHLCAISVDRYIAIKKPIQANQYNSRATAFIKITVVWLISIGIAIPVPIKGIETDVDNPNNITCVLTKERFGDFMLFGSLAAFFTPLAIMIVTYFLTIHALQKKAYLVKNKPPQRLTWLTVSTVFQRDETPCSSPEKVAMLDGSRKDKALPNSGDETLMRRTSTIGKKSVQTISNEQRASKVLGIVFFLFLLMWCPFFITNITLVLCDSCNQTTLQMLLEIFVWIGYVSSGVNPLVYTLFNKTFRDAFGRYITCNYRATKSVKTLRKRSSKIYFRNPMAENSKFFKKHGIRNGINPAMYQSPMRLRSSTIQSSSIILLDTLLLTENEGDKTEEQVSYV
Sequence of Kappa-type opioid receptor (P41145 whole entry): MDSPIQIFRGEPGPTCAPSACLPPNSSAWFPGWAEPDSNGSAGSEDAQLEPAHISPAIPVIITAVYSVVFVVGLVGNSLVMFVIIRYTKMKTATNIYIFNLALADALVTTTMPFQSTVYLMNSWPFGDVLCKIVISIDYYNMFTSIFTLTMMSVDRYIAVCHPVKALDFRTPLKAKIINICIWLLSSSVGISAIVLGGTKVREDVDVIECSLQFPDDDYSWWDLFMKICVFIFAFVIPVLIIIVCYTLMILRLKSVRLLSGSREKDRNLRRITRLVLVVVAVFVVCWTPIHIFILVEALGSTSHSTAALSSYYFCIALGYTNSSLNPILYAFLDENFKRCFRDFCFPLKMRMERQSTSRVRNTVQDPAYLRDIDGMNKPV
Sequence of Prostaglandin E2 receptor EP3 subtype (P43115 whole entry): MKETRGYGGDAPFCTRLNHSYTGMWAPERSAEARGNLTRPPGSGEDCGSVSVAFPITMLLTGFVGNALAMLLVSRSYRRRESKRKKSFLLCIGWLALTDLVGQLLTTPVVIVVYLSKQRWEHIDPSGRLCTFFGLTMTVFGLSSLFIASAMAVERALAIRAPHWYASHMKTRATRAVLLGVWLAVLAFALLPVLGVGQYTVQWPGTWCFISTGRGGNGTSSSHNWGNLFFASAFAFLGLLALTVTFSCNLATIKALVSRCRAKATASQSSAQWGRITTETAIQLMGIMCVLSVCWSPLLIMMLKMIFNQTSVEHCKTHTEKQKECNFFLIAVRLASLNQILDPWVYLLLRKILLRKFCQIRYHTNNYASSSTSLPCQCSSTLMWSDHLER
Sequence of Prostaglandin E2 receptor EP4 subtype (P35408 whole entry): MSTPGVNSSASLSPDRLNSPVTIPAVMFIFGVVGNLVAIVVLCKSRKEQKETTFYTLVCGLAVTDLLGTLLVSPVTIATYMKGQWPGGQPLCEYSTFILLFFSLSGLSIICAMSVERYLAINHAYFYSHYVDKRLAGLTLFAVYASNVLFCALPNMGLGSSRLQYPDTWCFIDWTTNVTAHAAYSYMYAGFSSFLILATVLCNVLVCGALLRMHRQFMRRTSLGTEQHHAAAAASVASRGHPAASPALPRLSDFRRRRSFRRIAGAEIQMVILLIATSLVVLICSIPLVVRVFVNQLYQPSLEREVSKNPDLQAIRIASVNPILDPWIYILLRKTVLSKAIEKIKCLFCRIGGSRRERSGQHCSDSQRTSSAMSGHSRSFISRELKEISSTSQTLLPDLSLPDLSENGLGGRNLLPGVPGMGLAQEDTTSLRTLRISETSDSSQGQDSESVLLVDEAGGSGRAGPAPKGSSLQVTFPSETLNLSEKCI
Sequence of Sodium-dependent noradrenaline transporter (P23975 whole entry): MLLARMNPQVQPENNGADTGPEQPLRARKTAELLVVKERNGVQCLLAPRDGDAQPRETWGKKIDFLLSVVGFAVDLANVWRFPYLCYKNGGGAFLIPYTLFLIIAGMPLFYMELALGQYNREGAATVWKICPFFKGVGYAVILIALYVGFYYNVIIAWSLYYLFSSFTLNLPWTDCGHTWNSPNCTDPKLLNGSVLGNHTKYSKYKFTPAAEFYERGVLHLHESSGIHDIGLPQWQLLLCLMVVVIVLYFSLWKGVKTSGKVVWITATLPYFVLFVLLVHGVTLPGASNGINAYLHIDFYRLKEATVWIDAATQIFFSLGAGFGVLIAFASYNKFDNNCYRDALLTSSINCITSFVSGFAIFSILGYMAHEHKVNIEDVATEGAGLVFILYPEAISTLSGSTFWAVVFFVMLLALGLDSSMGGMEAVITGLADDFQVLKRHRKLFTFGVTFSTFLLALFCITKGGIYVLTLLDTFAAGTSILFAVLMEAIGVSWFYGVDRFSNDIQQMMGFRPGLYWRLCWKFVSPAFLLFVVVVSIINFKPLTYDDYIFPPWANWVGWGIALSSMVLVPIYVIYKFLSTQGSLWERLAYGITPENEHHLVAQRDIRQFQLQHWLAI
Sequence of Beta-1 adrenergic receptor (P08588 whole entry): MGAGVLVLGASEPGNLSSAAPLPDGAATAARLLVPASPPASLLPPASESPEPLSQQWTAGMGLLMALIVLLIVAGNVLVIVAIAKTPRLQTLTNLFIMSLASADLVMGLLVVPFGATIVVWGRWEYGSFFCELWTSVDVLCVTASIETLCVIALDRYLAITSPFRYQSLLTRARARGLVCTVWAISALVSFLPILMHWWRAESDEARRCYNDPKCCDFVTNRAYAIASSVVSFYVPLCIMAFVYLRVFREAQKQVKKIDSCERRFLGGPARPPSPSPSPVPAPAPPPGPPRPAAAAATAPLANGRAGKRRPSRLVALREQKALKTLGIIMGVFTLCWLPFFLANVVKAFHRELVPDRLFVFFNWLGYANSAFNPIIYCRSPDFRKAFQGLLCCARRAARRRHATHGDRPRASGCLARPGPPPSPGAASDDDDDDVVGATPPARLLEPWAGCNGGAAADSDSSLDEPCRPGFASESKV
Sequence of Prostacyclin receptor (P43119 whole entry): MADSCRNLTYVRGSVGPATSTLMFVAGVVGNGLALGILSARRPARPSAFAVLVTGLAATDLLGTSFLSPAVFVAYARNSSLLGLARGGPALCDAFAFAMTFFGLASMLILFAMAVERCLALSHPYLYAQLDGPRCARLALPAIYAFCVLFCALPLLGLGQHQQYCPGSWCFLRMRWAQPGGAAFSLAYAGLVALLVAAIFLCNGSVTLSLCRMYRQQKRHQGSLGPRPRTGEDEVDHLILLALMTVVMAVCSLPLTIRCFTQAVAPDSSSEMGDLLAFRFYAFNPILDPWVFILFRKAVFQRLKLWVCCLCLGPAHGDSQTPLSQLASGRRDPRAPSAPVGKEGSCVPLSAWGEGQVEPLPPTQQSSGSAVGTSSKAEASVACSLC
Sequence of Muscarinic acetylcholine receptor M4 (P08173 whole entry): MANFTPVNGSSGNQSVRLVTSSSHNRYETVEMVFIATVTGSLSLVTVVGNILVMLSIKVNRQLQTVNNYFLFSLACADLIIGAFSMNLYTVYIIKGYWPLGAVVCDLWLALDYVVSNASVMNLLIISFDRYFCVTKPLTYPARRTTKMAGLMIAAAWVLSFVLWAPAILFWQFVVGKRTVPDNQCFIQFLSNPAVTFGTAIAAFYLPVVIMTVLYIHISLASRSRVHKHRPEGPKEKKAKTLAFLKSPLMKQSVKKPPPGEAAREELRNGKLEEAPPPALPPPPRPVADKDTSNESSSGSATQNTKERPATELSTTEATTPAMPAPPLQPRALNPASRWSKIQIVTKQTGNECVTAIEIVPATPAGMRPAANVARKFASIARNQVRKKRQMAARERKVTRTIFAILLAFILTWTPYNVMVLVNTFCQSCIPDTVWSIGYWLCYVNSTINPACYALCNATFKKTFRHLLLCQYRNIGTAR
Sequence of Sodium-dependent dopamine transporter (Q01959 whole entry): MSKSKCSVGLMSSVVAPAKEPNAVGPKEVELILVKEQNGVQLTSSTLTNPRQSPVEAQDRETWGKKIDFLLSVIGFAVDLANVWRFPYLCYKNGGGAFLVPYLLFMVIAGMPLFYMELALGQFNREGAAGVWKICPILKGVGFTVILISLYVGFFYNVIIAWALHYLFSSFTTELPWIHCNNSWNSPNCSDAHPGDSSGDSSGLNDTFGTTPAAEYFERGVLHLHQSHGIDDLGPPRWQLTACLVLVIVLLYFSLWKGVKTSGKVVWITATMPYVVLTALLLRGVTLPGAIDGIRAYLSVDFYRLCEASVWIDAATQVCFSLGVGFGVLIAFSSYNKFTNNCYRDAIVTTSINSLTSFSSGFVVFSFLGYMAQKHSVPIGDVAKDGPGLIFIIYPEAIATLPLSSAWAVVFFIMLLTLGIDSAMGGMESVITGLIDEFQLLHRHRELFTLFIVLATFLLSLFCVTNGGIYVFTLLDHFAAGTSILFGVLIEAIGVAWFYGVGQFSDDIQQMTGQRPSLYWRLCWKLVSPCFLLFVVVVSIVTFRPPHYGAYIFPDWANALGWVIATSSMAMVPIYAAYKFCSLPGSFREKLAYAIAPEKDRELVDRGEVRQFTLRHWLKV
Sequence of Prostaglandin F2-alpha receptor (P43088 whole entry): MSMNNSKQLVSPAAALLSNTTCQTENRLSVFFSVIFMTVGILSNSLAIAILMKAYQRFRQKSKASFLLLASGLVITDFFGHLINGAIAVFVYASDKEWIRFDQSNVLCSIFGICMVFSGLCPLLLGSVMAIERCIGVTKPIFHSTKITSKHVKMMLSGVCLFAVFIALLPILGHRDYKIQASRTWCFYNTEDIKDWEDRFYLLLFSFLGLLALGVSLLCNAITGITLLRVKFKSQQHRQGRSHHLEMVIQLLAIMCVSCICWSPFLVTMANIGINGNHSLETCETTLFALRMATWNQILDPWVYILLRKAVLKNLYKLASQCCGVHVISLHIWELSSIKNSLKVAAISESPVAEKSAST

The term half-life denotes how long it takes for the measured level to halve. The term IC50 denotes the concentration that inhibits the measured activity by half. One may read the EC50 as the concentration at which the effect is half-maximal. As a reminder, the bioavailability is dose-corrected exposure relative to a reference, in per cent. In the case of `COc1ccc(C(=O)c2c(C)n(Cc3cccc(O[C@@H](C)C(=O)O)c3)c3ncccc23)cc1`, the half-life in data set [1] was 2 h. In the data set with Mus musculus, the Activity stood at 29%. Besides, the IC50 in data set [2] was 66 nM; in data set [3] it was more than 50000 nM; at Cytochrome P450 3A4 it was more than 100000 nM; in [5], more than 50000 nM. The clearance in data set [4] stood at 115 mL/min/kg. In data set [6], the EC50 was 27 nM. This molecule showed a bioavailability in [7] of 29%.

Regarding `Cc1c(C(=O)c2ccc(Cl)cc2)c2ccc(OC(F)(F)F)cc2n1Cc1cccc(O[C@H](C)C(=O)O)c1`, the IC50 at Thromboxane A2 receptor is 2030 nM; in data set [8], 4070 nM; in data set [9] it was 970 nM; at Mu-type opioid receptor, 1860 nM; in data set [10] it was 1340 nM; at Substance-K receptor, 530 nM. The IC50 in [11] was found to be 4860 nM; in data set [12] it was 1140 nM; on Prostacyclin receptor, 6340 nM; on D(2) dopamine receptor, 3550 nM; in data set [13], 22500 nM; on D(1A) dopamine receptor, 1530 nM. In addition, the IC50 in data set [14] was found to be 29100 nM; in data set [15] it was 3410 nM; in data set [16], 2730 nM; in data set [17], 770 nM; in data set [18], 1650 nM; in [19] it was 2160 nM. For the same molecule, the 50% inhibitory concentration (IC50) in data set [20] was determined as 3700 nM; on D(3) dopamine receptor it was 837 nM; in data set [21] it was 3480 nM; in data set [22], 1640 nM; in [23] it was 1220 nM; in data set [24], 1560 nM. Besides, the IC50 came out at 8450 nM in data set [25] and 1690 nM in data set [26].
